Results on two molecules are retold here after patent publication US20140315838A1, “Methods of Treating Recurring Bacterial Infection” (Optimer Pharmaceuticals, Inc., priority 2010, published 2014).

This assay deals with Clostridium difficile. Put plainly: Phase 3 randomized, double-blind clinical trials of 10-day treatment of C. difficile infection: recurrence rate. Format: in vivo, human. To be noted: 10-day oral treatment (fidaxomicin 200 mg bid, vancomycin 125 mg qid), relapse out to 4 weeks after end of treatment. As to the method:
Subjects with mild to moderate C. difficile, males and females aged […] with >3 diarrheal (liquid or unformed) stools/day and with a positive enzyme immunoassay for C. difficile toxin or cell cytotoxicity assay and no more than 24 hours of prior treatment for C. difficile were eligible for enrollment. Only subjects with a primary episode or first relapse of disease were eligible. […] Subjects with ileus, WBC >30×10^9/L, toxic megacolon, or concern about life-threatening CDI were excluded from study entry. Subjects with severe underlying disease who were not expected to survive for 72 hours regardless of cause, who had had more than a single occurrence within 3 months, or who had Crohn's disease or ulcerative colitis were also excluded. […] They were evaluated for clinical cure at end of therapy and relapse out to 4 weeks following the end of treatment.

The mark [1] stands for this setting: Stratum: Single Prior Episode of CDI (recurring CDI).

Consider `CCc1c(Cl)c(O)c(Cl)c(O)c1C(=O)O[C@H]1[C@H](O)[C@H](OC)[C@H](OC/C2=C\C=C\C[C@H](O)/C(C)=C/[C@H](CC)[C@@H](O[C@@H]3OC(C)(C)[C@@H](OC(=O)C(C)C)[C@H](O)[C@@H]3O)/C(C)=C/C(C)=C/C[C@@H]([C@@H](C)O)OC2=O)O[C@@H]1C` [Fidaxomicin], for which the “Recurrence Rate” value (Stratum: No Prior Episode of CDI) is listed as 38/325 (11.6%); the “Recurrence Rate” value under setting [1] is 13/66 (19.6%); the “Recurrence Rate” value (Stratum: Single Prior Episode of CDI (recurring CDI), listed as fidaxomicin) is recorded as 19.6%.

On to `CN[C@H](CC(C)C)C(=O)N[C@H]1C(=O)N[C@@H](CC(N)=O)C(=O)N[C@H]2C(=O)N[C@H]3C(=O)N[C@H](C(=O)N[C@H](C(=O)O)c4cc(O)cc(O)c4-c4cc3ccc4O)[C@H](O)c3ccc(c(Cl)c3)Oc3cc2cc(c3O[C@@H]2O[C@H](CO)[C@@H](O)[C@H](O)[C@H]2O[C@H]2C[C@](C)(N)[C@H](O)[C@H](C)O2)Oc2ccc(cc2Cl)[C@H]1O` [Vancomycin, reference compound], for which the “Recurrence Rate” value is listed as 22/62 (35.5%) under setting [1] and 35.5% (Stratum: Single Prior Episode of CDI (recurring CDI), listed as vancomycin).
